{
  "source": "patent US11596633B2",
  "about": "“SHP2 inhibitor compositions and methods for treating cancer” (Revolution Medicines, Inc., priority 2017, dated 2023)",
  "key": {"[1]": {"system": "caspase 3/7 activity in NCI-H358 cells", "assay": "Activated Caspase 3/7 assay in spheroids", "assay_type": "cell-based, human", "conditions": "NCI-H358 spheroid cultures", "method": "Activated Caspase 3/7 Assay in Spheroids. […] Immediately after seeding, cells were spun down at 1000 RPM for 5 minutes, and incubated at 37° C. in 5% CO2 for five days to allow for spheroid formation. Spheroid formation was confirmed visually. […] Caspase 3/7 activity was measured using the Caspase-Glo 3/7 Assay System (Promega), following the manufacturer's instructions. After addition of Caspase-Glo reagent, the well contents were pipetted several times and incubated at room temperature in the dark for 45 minutes to allow thorough cell lysis. 50 μL of the lysate/reaction was transferred to an opaque white 96-well ½ area plates (Perkin Elmer). Luminescence was read in an EnVision Multilabel Plate Reader (Perkin Elmer). Assay data was plotted using Prism 7 (GraphPad) software."}, "[2]": {"system": "H358 KRas G12C xenograft", "assay": "NSCLC H358 xenograft, athymic nude mice", "assay_type": "in vivo", "conditions": "oral administration", "method": "Compound A or Compound B were administered by oral gavage daily. The positive control, paclitaxel (30 mg/kg iv) in 5% ethanol, 5% cremophor EL, in 5% dextrose in deionized water was administered once every five days. Trametinib (1 mg/kg PO in 0.5% Methylcellulose+0.5% Tween 80) was administered by oral gavage daily. The study endpoint was defined as a mean tumor volume of 2000 mm^3 in the control group or 22 days, whichever came first. Mean tumor volume data are reported for all animals that remained on study."}, "[3]": {"system": "RAS-GTP in A549 cells", "assay": "RAS-GTP pulldown (Raf-RBD)", "assay_type": "cell-based", "conditions": "A549 (KRAS G12S), 6 hour and 24 hour", "method": "To determine the effects of small molecules on levels of activated RAS-GTPase, cell lines of interest were cultured under standard 2D culture conditions. Cells were seeded and following overnight incubation incubated at 37° C. with vehicle (DMSO) or test article(s). After an appropriate incubation period, cells were washed and cell lysis buffer added to prepare a cell lysate. The levels of Ras-GTP in the lysates were determined using affinity purification of a Raf-RBD (Ras binding domain of Raf)/GTP-Ras complex. In one approach, the Pierce Active Ras Pulldown and Detection Kit was used. Briefly, clarified lysates (500 μg total protein, quantified by BCA) were mixed with glutathione resin which had been preincubated with GST-Raf-RBD. The mixture was vortexed and incubated at 4° C. for 1 hour with gentle rocking. The resin was washed three times with lysis buffer and bound Ras-GTP eluted by addition of 2× reducing sample buffer. Eluted proteins were separated by SDS-PAGE using a 4-15% Tris-glycine gel (BioRad). Proteins were transferred to a nitrocellulose membrane for western blot using an anti-Ras antibody (Thermofisher, 1:200) and a Licor IRDye-800 anti-mouse secondary antibody (1:20,000). The Licor Odyssey CLx was used for visualization."}, "[4]": {"system": "MiaPaca-2 KRas G12C xenograft", "assay": "Pancreatic MiaPaca-2 xenograft", "assay_type": "in vivo, mice", "text": "Similar methods were used to evaluate efficacy of test articles in the pancreatic MiaPaca-2 KRas^G12C xenograft model. Balb/c nude mice (6-8 weeks old) were implanted with […] MiaPaca-2 tumor cells in 50% Matrigel subcutaneously in the flank. […] Administration of test articles and study design are as described above for H358 xenograft model."}, "[5]": {"system": "Cal-12T", "assay": "3D proliferation (CTG)", "assay_type": "cell-based", "conditions": "Cal-12T (Class III BRAF G466V/+)"}, "[6]": {"system": "p-ERK1/2 in H1792 cells", "assay": "p-ERK AlphaLisa SureFire", "assay_type": "cell-based", "conditions": "H1792 cells (KRAS G12C)", "method": "(§1) Cells were plated at ˜20×10^3 cells per well and following overnight incubation were washed with serum-free media. Cells were then incubated for one hour with increasing concentrations of the test article in serum-free media containing 0.2% BSA prior to termination of the assay and measurement of pERK levels in cellular lysates by AlphaLisa SureFire Ultra kit conducted according to the manufacturer's instructions."}, "[7]": {"system": "pERK in Cal-12T cells", "assay": "p-ERK AlphaLisa SureFire", "assay_type": "cell-based", "conditions": "Cal-12T (Class III BRAF G466V/+)", "method": "as §1"}, "[8]": {"system": "pERK in NCI-H508 cells", "assay": "p-ERK AlphaLisa SureFire", "assay_type": "cell-based", "conditions": "NCI-H508 (Class III BRAF G596R/+)", "method": "as §1"}, "[9]": {"system": "pERK in NCI-H1666 cells", "assay": "p-ERK AlphaLisa SureFire", "assay_type": "cell-based", "conditions": "NCI-H1666 (Class III BRAF G466V/+)", "method": "as §1"}, "[10]": {"system": "SK-LU-1", "assay": "3D cell viability (CTG)", "assay_type": "cell-based", "conditions": "Homo sapiens; SK-LU-1, KRAS G12D, 3D culture"}, "[11]": {"system": "HPAC", "assay": "3D cell viability (CTG)", "assay_type": "cell-based", "conditions": "Homo sapiens, KRAS G12D, 3D culture"}, "[12]": {"system": "MIAPaCa-2", "assay": "3D cell viability (CTG)", "assay_type": "cell-based", "conditions": "Homo sapiens, MIA PaCa-2; MIAPaCa-2, KRAS G12C, 3D culture"}, "[13]": {"system": "NCI-H1373", "assay": "3D cell viability (CTG)", "assay_type": "cell-based", "conditions": "Homo sapiens; NCI-H1373, KRAS G12C, 3D culture"}, "[14]": {"system": "LS513", "assay": "3D cell viability (CTG)", "assay_type": "cell-based", "conditions": "Homo sapiens, LS-513; LS513, KRAS G12D, 3D culture"}, "[15]": {"system": "ASPC-1", "assay": "3D cell viability (CTG)", "assay_type": "cell-based", "conditions": "Homo sapiens, ASPC1; ASPC-1, KRAS G12D, 3D culture"}, "[16]": {"system": "NCI-H2122", "assay": "3D cell viability (CTG)", "assay_type": "cell-based", "conditions": "Homo sapiens; NCI-H2122, KRAS G12C, 3D culture"}, "[17]": {"system": "NCI-H358", "assay": "3D cell viability (CTG)", "assay_type": "cell-based, human", "conditions": "3D culture"}, "[18]": {"system": "SNU-668", "assay": "3D cell viability (CTG)", "assay_type": "cell-based", "conditions": "SNU668; SNU-668, KRAS Q61K, 3D culture"}, "[19]": {"system": "LoVo", "assay": "3D cell viability (CTG)", "assay_type": "cell-based", "conditions": "Homo sapiens, KRAS G13D, 3D culture"}, "[20]": {"system": "Calu-6", "assay": "3D cell viability (CTG)", "assay_type": "cell-based", "conditions": "Homo sapiens; Calu-6, KRAS Q61K, 3D culture"}, "[21]": {"system": "SHP-77", "assay": "3D cell viability (CTG)", "assay_type": "cell-based", "conditions": "Homo sapiens, SHP77; SHP-77, KRAS G12V, 3D culture"}},
  "data": [
    {"smiles": "Cc1nc(N2CCC3(CC2)CO[C@@H](C)[C@H]3N)c(CO)nc1-c1cccc(Cl)c1Cl", "note": "[Compound B]", "values": [
      {"measurement": "caspase 3/7 activity", "setting": "[1]", "value": "robust caspase 3/7 activation"},
      {"measurement": "tumor volume", "setting": "[2]", "value": "dose-dependent decrease"},
      {"measurement": "RAS-GTP accumulation resulting from MEK inhibition by trametinib", "setting": "[3]", "value": "suppressed"},
      {"measurement": "reduction in tumor volume compared with trametinib", "setting": "[4]; 30 mg/kg PO qd, trametinib 1 mg/kg PO, MiaPaca-2 model", "value": "greater than trametinib"},
      {"measurement": "tumor volume", "setting": "[4]; oral administration, MiaPaca-2 xenograft", "value": "dose-dependent decrease"},
      {"measurement": "proliferation", "setting": "[5]", "value": "suppression"},
      {"measurement": "inhibition of p-ERK1/2 levels", "setting": "[6]", "value": "concentration-dependent inhibition"},
      {"measurement": "pERK levels", "setting": "[7]", "value": "suppression"},
      {"measurement": "pERK levels", "setting": "[8]", "value": "suppression"},
      {"measurement": "pERK levels", "setting": "[9]", "value": "suppression"}
    ]},
    {"smiles": "Nc1nc(N2CCC3(CCC[C@H]3N)CC2)cnc1Sc1ccnc(Cl)c1Cl", "note": "[Compound A]", "values": [
      {"measurement": "IC50", "setting": "[10]", "value": "> 10", "unit": "µM"},
      {"measurement": "IC50", "setting": "[11]", "value": "> 10", "unit": "µM"},
      {"measurement": "IC50", "setting": "[12]", "value": 0.3, "unit": "µM"},
      {"measurement": "IC50", "setting": "[13]", "value": 1.3, "unit": "µM"},
      {"measurement": "IC50", "setting": "[14]", "value": 0.1, "unit": "µM"},
      {"measurement": "IC50", "setting": "[15]", "value": "> 10", "unit": "µM"},
      {"measurement": "IC50", "setting": "[16]", "value": 5.9, "unit": "µM"},
      {"measurement": "cell viability", "setting": "[17]; H358 cells", "value": "concentration-dependent inhibition"},
      {"measurement": "IC50", "setting": "[17]; Homo sapiens, NCI-H358, KRAS G12C", "value": 0.1, "unit": "µM"},
      {"measurement": "IC50", "setting": "[18]", "value": "> 10", "unit": "µM"},
      {"measurement": "IC50", "setting": "[19]", "value": "> 10", "unit": "µM"},
      {"measurement": "IC50", "setting": "[20]", "value": "> 10", "unit": "µM"},
      {"measurement": "IC50", "setting": "[21]", "value": "> 10", "unit": "µM"}
    ]}
  ]
}
